Test results: the supplement of paper PMC10307832

Key:
Assay in all cases: relative viability (nuclei count vs DMSO), 5 days (fraction); higher = more cells survive
AGI-6780 + Vorinostat = compound: O=C(Nc1cccc(C(F)(F)F)c1)Nc1cc(S(=O)(=O)NC2CC2)ccc1-c1ccsc1 [AGI-6780] + O=C(CCCCCCC(=O)Nc1ccccc1)NO [Vorinostat] (partner 1 µM)
How it was run: (§1)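 A single step with final 0.05% Triton X-100, 1% formaldehyde and 1 ug/ml Hoechst fixed the cells and stained nuclei 5 days after treatment. Lung cancer cell lines in 1536-well plates had been treated by pin tool the day after seeding with one drug alone or a fixed anchor-drug dose plus five library-drug doses (not always all listed) in √10 steps, and nuclei were counted on 4× images. Relative viability is the ratio of nuclei in treated wells to nuclei in vehicle wells, taken as the median of duplicate plates.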

AGI-6780 + Pemetrexed = compound: O=C(Nc1cccc(C(F)(F)F)c1)Nc1cc(S(=O)(=O)NC2CC2)ccc1-c1ccsc1 [AGI-6780] + Nc1nc2[nH]cc(CCc3ccc(C(=O)N[C@@H](CCC(=O)O)C(=O)O)cc3)c2c(=O)[nH]1 [Pemetrexed] (partner 0.2 µM)
How it was run: as §1

AGI-6780 + Dasatinib = compound: O=C(Nc1cccc(C(F)(F)F)c1)Nc1cc(S(=O)(=O)NC2CC2)ccc1-c1ccsc1 [AGI-6780] + Cc1nc(Nc2ncc(C(=O)Nc3c(C)cccc3Cl)s2)cc(N2CCN(CCO)CC2)n1 [Dasatinib] (partner 0.075 µM)
How it was run: as §1

AGI-6780 + Palbociclib = compound: O=C(Nc1cccc(C(F)(F)F)c1)Nc1cc(S(=O)(=O)NC2CC2)ccc1-c1ccsc1 [AGI-6780] + CC(=O)c1c(C)c2cnc(Nc3ccc(N4CCNCC4)cn3)nc2n(C2CCCC2)c1=O [Palbociclib] (partner 0.5 µM)
How it was run: as §1

| Cell Line | relative viability (AGI-6780 + Vorinostat; first compound 0.08 µM) | relative viability (AGI-6780 + Vorinostat; first compound 0.253 µM) | relative viability (AGI-6780 + Vorinostat; first compound 0.8 µM) | relative viability (AGI-6780 + Vorinostat; first compound 2.53 µM) | relative viability (AGI-6780 + Vorinostat; first compound 8 µM) | relative viability (AGI-6780 + Pemetrexed; first compound 0.08 µM) | relative viability (AGI-6780 + Pemetrexed; first compound 0.253 µM) | relative viability (AGI-6780 + Pemetrexed; first compound 0.8 µM) | relative viability (AGI-6780 + Pemetrexed; first compound 2.53 µM) | relative viability (AGI-6780 + Pemetrexed; first compound 8 µM) | relative viability (AGI-6780 + Dasatinib; first compound 0.08 µM) | relative viability (AGI-6780 + Dasatinib; first compound 0.253 µM) | relative viability (AGI-6780 + Dasatinib; first compound 0.8 µM) | relative viability (AGI-6780 + Dasatinib; first compound 2.53 µM) | relative viability (AGI-6780 + Dasatinib; first compound 8 µM) | relative viability (AGI-6780 + Palbociclib; first compound 0.08 µM) | relative viability (AGI-6780 + Palbociclib; first compound 0.253 µM) | relative viability (AGI-6780 + Palbociclib; first compound 0.8 µM) | relative viability (AGI-6780 + Palbociclib; first compound 2.53 µM) | relative viability (AGI-6780 + Palbociclib; first compound 8 µM) |
| --- | --- | --- | --- | --- | --- | --- | --- | --- | --- | --- | --- | --- | --- | --- | --- | --- | --- | --- | --- | --- |
| NCI-H1915 | 0.563 | 0.538 | 0.516 | 0.468 | 0.482 | 0.478 | 0.491 | 0.552 | 0.538 | 0.452 | 0.358 | 0.333 | 0.344 | 0.249 | 0.304 | 0.525 | 0.506 | 0.518 | 0.46 | 0.524 |
| NCI-H1944 | 0.641 | 0.523 | 0.575 |  | 0.579 | 0.642 | 0.627 | 0.611 |  | 0.684 | 0.239 | 0.232 | 0.233 |  | 0.233 | 0.365 | 0.331 | 0.32 |  | 0.403 |
| NCI-H1975 | 0.711 | 0.742 | 0.66 | 0.697 | 0.694 | 0.313 | 0.275 | 0.299 | 0.288 | 0.29 | 0.388 | 0.345 | 0.395 |  | 0.312 | 0.569 | 0.673 | 0.531 | 0.492 | 0.584 |
| NCI-H1993 | 1.21 | 0.811 | 0.853 |  | 0.784 | 0.5 | 0.669 | 0.634 |  | 0.542 | 0.661 | 0.724 | 0.713 | 0.485 | 0.549 | 0.693 | 0.649 | 0.78 |  | 0.609 |
| NCI-H2009 | 0.754 | 0.712 | 0.693 | 0.707 | 0.628 | 1.14 | 1.1 | 1.01 | 1.14 | 0.957 | 0.27 | 0.309 | 0.258 | 0.312 | 0.32 | 0.198 | 0.158 | 0.262 | 0.194 | 0.236 |
| NCI-H2023 | 0.705 | 0.818 | 0.781 | 0.541 | 0.648 | 0.283 | 0.235 | 0.242 | 0.256 | 0.204 | 0.591 | 0.624 | 0.617 | 0.507 | 0.529 | 0.394 | 0.372 | 0.421 | 0.357 | 0.4 |
| NCI-H2085 | 0.787 | 0.832 | 0.841 | 0.865 | 0.727 | 0.935 | 0.963 | 0.911 | 1.14 | 0.906 | 0.272 | 0.255 | 0.276 | 0.24 | 0.243 | 0.469 | 0.5 | 0.469 | 0.535 | 0.5 |
| NCI-H2087 | 0.546 | 0.646 | 0.719 | 0.744 | 0.868 | 0.702 | 0.637 | 0.696 | 0.636 | 0.754 | 0.843 | 0.866 | 0.888 | 0.852 | 0.838 | 0.244 | 0.265 | 0.221 | 0.25 | 0.245 |
